Experimental data published in publication PMC7380166, “How to Study the Metabolism of New Psychoactive Substances for the Purpose of Toxicological Screenings—A Follow-Up Study Comparing Pooled Human Liver S9, HepaRG Cells, and Zebrafish Larvae” (Frontiers in Chemistry, 2020).
Where two headings read alike, the source gives them in different places.

Tests used:
monooxygenases = details: initial monooxygenases activity screenings described elsewhere; ref Caspar et al., [2018a]; Wagmann et al., [2019b],[c]; cited from earlier work
[1] = cited from earlier work; for Detection in pHLS9 [25 µM]: n = 2, according to literature
zebrafish larvae [2] = assay: In vivo maximum-tolerated concentration (MTC) study in zebrafish larvae; parameters: species or system zebrafish (Danio rerio); details: for Survival rate / Survival rates for all tested concentrations / Malformations: larvae 4 dpf; for Survival rate: 24-h treatment, fifteen larvae; for Survival rates for all tested concentrations: 0.01 to 100 μM; for Survival rates for all tested concentrations / Malformations: 24 h; for Concentration considered non-toxic for zebrafish larvae (4 dpf): 24 h exposure via medium; for Malformations: up to 100 μM
Procedure: Internal protocols based on published standard methods (Westerfield, [2007]) were used to perform zebrafish husbandry and the maximum-tolerated concentration (MTC) testing was based on a previous study (Richter et al., [2019a]). Danieau's medium [17 mM NaCl, 2 mM KCl, 0.12 mM MgSO4, 1.8 mM Ca(NO3)2, 1.5 mM HEPES, pH 7.1–7.3, and 1.2 μM methylene blue] at 28°C was used to raise zebrafish larvae of the AB wild-type strain. For MTC testing, 96-well plates were used with 100 μl of medium and one larva per well. Drug exposition was started 4 dpf using 0, 0.01, 0.1, 1, 10, 50, or 100 μM final concentrations of 3,4-DMA-NBOMe, ephylone, 4F-MDMB-BINACA, 4F-PHP, or 1P-LSD, respectively. The drug exposure in the incubator at 28°C lasted 24 h. The final DMSO concentration was 1% (v/v) for all experiments. Monitoring of the larvae was done using a LEICA M205 FA stereo microscope (Leica Mikrosysteme Vertrieb GmbH, Wetzlar, Germany) to detect developmental defects and/or decreased survival rates. Fifteen larvae were used for each experiment.

zebrafish larvae [3] = assay: Zebrafish larvae exposure, metabolite identification by LC-HRMS/MS; details: for Number of phase I metabolites detected, Zebrafish larvae / Number of phase II metabolites detected, Zebrafish larvae: 100 μM in medium; for Number of phase I metabolites detected, Zebrafish larvae / Number of phase II metabolites detected, Zebrafish larvae / Absolute peak area, Zebrafish larvae [100 µM]: 24 h; for Absolute peak area, Zebrafish larvae [100 µM]: 100 µM parent NPS in medium, larvae 4 dpf, larvae extract, one replicate of n = 3, n.d. = not detected; for Relative number of matches with the four most abundant signals in human plasma, Zebrafish larvae / Relative number of matches with the four most abundant signals in human urine, Zebrafish larvae: larvae exposed to 100 μM, human data from Wagmann et al., [2019b]
HepaRG cells = assay: Incubations with HepaRG cells, metabolite identification by LC-HRMS/MS; format: in vitro ADME, human; details: for Absolute peak area, HepaRG [25 μM]: 25 μM parent NPS; for Absolute peak area, HepaRG [25 μM] / Number of phase I metabolites detected, HepaRG [25 μM] / Number of phase II metabolites detected, HepaRG [25 μM] / Absolute peak area, HepaRG [250 μM] / Number of phase I metabolites detected, HepaRG [250 μM] / Number of phase II metabolites detected, HepaRG [250 μM]: 24 h; for Absolute peak area, HepaRG [25 μM] / Absolute peak area, HepaRG [250 μM]: cell culture medium, one replicate of n = 3, n.d. = not detected; for Absolute peak area, HepaRG [250 μM]: 250 μM parent NPS; for Relative number of matches with the four most abundant signals in human plasma, HepaRG [25 μM] / Relative number of matches with the four most abundant signals in human plasma, HepaRG [250 μM] / Relative number of matches with the four most abundant signals in human urine, HepaRG [25 μM] / Relative number of matches with the four most abundant signals in human urine, HepaRG [250 μM]: human data for ephylone and 4F-PHP from Wagmann et al., [2019b]
[4] = Incubations with pooled human liver S9 fraction (pHLS9), metabolite identification by LC-HRMS/MS; format: in vitro ADME; details: human data for ephylone and 4F-PHP from Wagmann et al., [2019b]
Procedure: According to published procedures (Richter et al., [2017b], [2019b]; Caspar et al., [2018b]; Wagmann et al., [2019b],[c]), the final incubation volume per reaction tube was 150 μl, with a final protein concentration of 2 mg/ml. The given concentrations represent final concentrations. A preincubation for 10 min at 37°C with UGT reaction mixture solution B (containing alamethicin, 25 μg/ml), MgCl2 (2.5 mM), NADP^+ (0.6 mM), isocitrate (2.5 mM), isocitrate dehydrogenase (0.8 U/ml), superoxide dismutase (100 U/ml), acetyl coenzyme A (0.1 mM), phosphate buffer (90 mM, pH 7.4), and pHLS9 (2 mg/ml) was done. Afterwards, UGT reaction mixture solution A (containing UDP glucuronic acid, 2.5 mM), PAPS (40 μM), SAM (1.2 mM), dithiothreitol (1 mM), and glutathione (10 mM) were added, as well as 25 μM 4F-MDMB-BINACA to start the reactions. The mixture was incubated for 360 min. Total amount of organic solvent in incubation mixtures was <2% (Chauret et al., [1998]). After 60 min, an aliquot of the reaction mixture (60 μl) was transferred in another reaction tube containing 20 μl of ice-cold acetonitrile to terminate the reactions. The remaining aliquot (90 μl) was incubated for an additional 300 min, and then the reactions were stopped by adding 30 μl of ice-cold acetonitrile. Thereafter, the reaction tubes were cooled at −20°C for 30 min prior to centrifugation at 18,407 × g for 2 min. The supernatants (50 μl) were transferred into autosampler vials, and 1 μl was injected onto the LC-HRMS/MS system. Control samples without pHLS9 and blank samples without substrate were prepared to confirm the absence of non-metabolically formed and interfering compounds, respectively. All incubations were performed in duplicate.
According to a previous study (Richter et al., [2019a]), a Thermo Fisher Scientific (TF, Dreieich, Germany) Dionex UltiMate 3000 Rapid Separation (RS) UHPLC system with a quaternary UltiMate 3000 RS pump and an UltiMate 3000 RS autosampler controlled by the TF Chromeleon software version 6.8 was used. The LC system was coupled to an Orbitrap-based TF Q-Exactive Plus equipped with a heated electrospray ionization II (HESI-II) source. Calibration was done prior to analysis with a Positive Cal Mix (Supelco, Bellefonte, PA, USA) at a flow rate of 3 μl/min using a syringe pump. The conditions of the LC system were as follows: TF Accucore PhenylHexyl column (100 × 2.1 mm, 2.6 μm particle size); gradient elution with 2 mM ammonium formate solution containing 0.1% (v/v) formic acid (eluent A) and 2 mM ammonium formate solution in acetonitrile/methanol (50:50, v/v) containing 0.1% (v/v) formic acid, and 1% (v/v) water (eluent B). […] The following gradient was used: 0–1.0 min hold 1% B, 1–10 min to 99% B, 10–11.5 min hold 99% B, 11.5–13.5 min hold 1% B. The HESI-II source conditions were as follows: ionization mode, positive; heater temperature, 320°C; ion transfer capillary temperature, 320°C; sheath gas, 60 arbitrary units (AU); auxiliary gas, 10 AU; spray voltage, 4.00 kV; and S-lens RF level, 50.0. Mass spectrometry experiments were performed using high-resolution (HR) full scan mode and a targeted MS^2 mode with an inclusion list for each NPS. The inclusion list contained m/z values of metabolites, which were likely to be formed for example hydroxy, oxo, carboxy, dealkyl, demethylenylated, and defluorinated metabolites (phase I) as well as sulfates and glucuronides (phase II) and combinations of them. Full scan settings were as follows: resolution, 35,000; automatic gain control (AGC) target, 3e6; maximum injection time (IT), 120 ms; scan ranges, 3,4-DMA-NBOMe m/z 100–700, ephylone m/z 200–600, 4F-MDMB-BINACA m/z 150–700, 4F-PHP m/z 200–600, and 1P-LSD m/z 250–700. The settings for the targeted MS^2 mode with the respective inclusion lists were as follows: resolution, 17,500; AGC target, 2e5; maximum IT, 250 ms; loop count, 5; isolation window, 1.0 m/z; stepped normalized collision energy (NCE), 17.5, 35, 52.5%; pick others, enabled. […]

[5] = human biosamples after intake of ephylone and 4F-PHP; ref Wagmann et al., [2019b]; cited from earlier work

| SMILES | Monooxygenases involved in metabolism (monooxygenases) | Survival rate (zebrafish larvae [2]; 0.01 μM) [%] | Survival rate (zebrafish larvae [2]; 0.1 μM) [%] | Survival rate (zebrafish larvae [2]; 1 μM) [%] | Survival rate (zebrafish larvae [2]; 10 μM) [%] | Survival rate (zebrafish larvae [2]; 50 μM) [%] | Survival rate (zebrafish larvae [2]; 100 μM) [%] | Survival rates for all tested concentrations (zebrafish larvae [2]) [%] | Concentration considered non-toxic for zebrafish larvae (4 dpf) (zebrafish larvae [2]) [µM] | Malformations (zebrafish larvae [2]) | Number of phase I metabolites detected, Zebrafish larvae (zebrafish larvae [3]) | Number of phase II metabolites detected, Zebrafish larvae (zebrafish larvae [3]) | Absolute peak area, Zebrafish larvae [100 µM] (zebrafish larvae [3]) | Absolute peak area, HepaRG [25 μM] (HepaRG cells) | Number of phase I metabolites detected, HepaRG [25 μM] (HepaRG cells) | Number of phase II metabolites detected, HepaRG [25 μM] (HepaRG cells) | Absolute peak area, HepaRG [250 μM] (HepaRG cells) | Number of phase I metabolites detected, HepaRG [250 μM] (HepaRG cells) | Number of phase II metabolites detected, HepaRG [250 μM] (HepaRG cells) | Number of phase I metabolites detected, pHLS9 [25 μM] ([1]; ref Wagmann et al., [2019b]) | also measured |
| --- | --- | --- | --- | --- | --- | --- | --- | --- | --- | --- | --- | --- | --- | --- | --- | --- | --- | --- | --- | --- | --- |
| COc1ccccc1CNC(C)Cc1ccc(OC)c(OC)c1 (centres unmarked) [3,4-DMA-NBOMe, 1-[3,4-dimethoxy]-N-[ortho-methoxybenzyl]propane-2-amine] | CYP3A4 was described to be involved in the N-dealkylation and CYP2C19 and CYP2D6 in the O-demethylation and hydroxylation | 100 | 100 | 100 | 100 | 100 | 100 | 100 | 100 | no malformations | 9 | 7 | 6.22E+09 | 1.48E+09 | 6 | 4 | 1.03E+10 | 10 | 7 |  | Number of phase I metabolites detected, pHLS9 [25 μM] ([1]; ref Caspar et al., [2018b]): 6 (Caspar et al., [2018b]); Number of phase II metabolites detected, pHLS9 [25 μM] ([1]; ref Caspar et al., [2018b]): 5 (Caspar et al., [2018b]); Detection in pHLS9 [25 µM] ([1]; 3,4-DMA-NBOMe and metabolites, ref Caspar et al., 2018): + |
| CCCC(NCC)C(=O)c1ccc2c(c1)OCO2 (centres unmarked) [Ephylone, N-ethylnorpentylone] | CYP1A2, CYP2B6, CYP2C19, and CYP3A4 | 100 | 100 | 100 | 100 | 100 | 100 | 100 | 100 | no malformations | 5 | 4 | 3.57E+09 | 6.38E+08 | 2 | 4 | 3.94E+09 | 4 | 6 | 5 (Wagmann et al., [2019b]) | Number of phase II metabolites detected, pHLS9 [25 μM] ([1]; ref Wagmann et al., [2019b]): 8 (Wagmann et al., [2019b]); Detection in pHLS9 [25 µM] ([1]; ephylone and metabolites, ref Wagmann et al., 2019a): +; Relative number of matches with the four most abundant signals in human plasma, pHLS9 [25 μM] [4]: 100%; Relative number of matches with the four most abundant signals in human urine, pHLS9 [25 μM] [4]: 100%; Relative number of matches with the four most abundant signals in human plasma, Zebrafish larvae (zebrafish larvae [3]): 100%; Relative number of matches with the four most abundant signals in human urine, Zebrafish larvae (zebrafish larvae [3]): 100%; Signals with the highest abundance in human plasma and/or urine [5]: highest ephylone-related signals; Relative number of matches with the four most abundant signals in human plasma, HepaRG [25 μM] (HepaRG cells): 75%; Relative number of matches with the four most abundant signals in human plasma, HepaRG [250 μM] (HepaRG cells): 100%; Relative number of matches with the four most abundant signals in human urine, HepaRG [25 μM] (HepaRG cells): 75%; Relative number of matches with the four most abundant signals in human urine, HepaRG [250 μM] (HepaRG cells): 100% |
| CCCCC(C(=O)c1ccc(F)cc1)N1CCCC1 (stereo not drawn) [Metabolite 4F-PHP, 4-fluoro-alpha-pyrrolidinohexiophenone] | CYP1A2, CYP2B6, CYP2C19, and CYP3A4 | 100 | 100 | 100 | 100 | 100 | 100 | 100 | 100 | no malformations | 8 | 3 | 4.36E+09 | 6.65E+08 | 5 | 0 | 5.45E+09 | 6 | 1 | 6 (Wagmann et al., [2019b]) | Number of phase II metabolites detected, pHLS9 [25 μM] ([1]; ref Wagmann et al., [2019b]): 2 (Wagmann et al., [2019b]); Detection in pHLS9 [25 µM] ([1]; 4F-PHP and metabolites, ref Wagmann et al., 2019a): +; Relative number of matches with the four most abundant signals in human plasma, pHLS9 [25 μM] [4]: 75%; Relative number of matches with the four most abundant signals in human urine, pHLS9 [25 μM] [4]: 75%; Relative number of matches with the four most abundant signals in human plasma, Zebrafish larvae (zebrafish larvae [3]): 100%; Relative number of matches with the four most abundant signals in human urine, Zebrafish larvae (zebrafish larvae [3]): 75%; Relative number of matches with the four most abundant signals in human plasma, HepaRG [25 μM] (HepaRG cells): 50%; Relative number of matches with the four most abundant signals in human plasma, HepaRG [250 μM] (HepaRG cells): 50%; Relative number of matches with the four most abundant signals in human urine, HepaRG [25 μM] (HepaRG cells): 25%; Relative number of matches with the four most abundant signals in human urine, HepaRG [250 μM] (HepaRG cells): 50% |
